Measurements as given in article PMC7468108 (Communications Biology, 2020).

Legend:
[1] = XTT assay, cytotoxicity of the hybrid molecules towards SH-SY5Y; type: cell-based; conditions: human, SH-SY5Y cells
Procedure: (§1) To this end, we first tested whether the hybrid molecules carried any cytotoxicity themselves. […] No considerable toxicity (≥95% viability) was caused by the hybrid molecules towards either cell line, even at the highest concentration of 250 µM (Fig. 8).
(§2) The SH-SY5Y and HEK-293 cell lines (2 × 10^5 cells/mL) were cultured in 96-well tissue microplates (100 µL/well) and allowed to adhere overnight at 37 °C. The conjugate molecules were dissolved in DMEM:nutrient mixture F12 (Ham’s) (1:1) (Biological Industries, Israel) at different concentrations. The negative control was prepared as medium without hybrid molecules and treated in the same manner. 100 µL of medium with or without hybrid molecules were added to each well in triplicate. Following incubation for 24 h at 37 °C, cell viability was evaluated using the 2,3-bis(2-methoxy-4-nitro-5-sulfophenyl)-2H-tetrazolium-5-carboxanilide (XTT) cell proliferation assay kit (Biological Industries, Israel) according to the manufacturer’s instructions. Briefly, 100 µL of activation reagent was added to 5 mL of XTT reagent, followed by the addition of 50 µL of activated-XTT solution to each well. After 2 h incubation at 37 °C, color intensity was measured using an ELISA microplate reader at 450 nm and 630 nm. Results are presented as mean and mean standard error. Each experiment was repeated minimum three times.

[2] = biological target: T1, pre-formed fibrils of hIAPP (Homo sapiens, UniProt P10997); assay: TEM of pre-formed hIAPP fibrils with the tested molecules; conditions: 5-fold molar excess of compound
T1 construct: hIAPP is a 37-amino acid neuroendocrine peptide hormone; purchased Peptide 2.0 (USA)
T1 sequence (P10997 34-70 limits assumed): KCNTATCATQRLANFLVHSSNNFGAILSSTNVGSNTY
Procedure: (§3) For efficient treatment of proteinopathies it may be advantageous to disassemble amyloid aggregates/fibrils which are usually already present at the time of diagnosis[75]–[77]. Therefore, the ability of the hybrid molecules to disrupt pre-formed fibrils of Aβ42 and hIAPP was examined. […] According to the ThT kinetic results, this time was sufficient to complete fibril formation (Fig. 2a, d). Then, various doses of the hybrid molecules were added to the pre-formed fibrils and the mixtures were incubated for additional 10 h. The process of disaggregation was monitored by ThT-binding assay, CD spectroscopy, TEM and Congo red staining (Fig. 5).
Samples (10 µL) were placed for 2 min on 400-mesh copper grids covered with carbon-stabilized Formvar film (Electron Microscopy Sciences (EMS), Hatfield, PA). Excess fluid was removed, and grids were negatively stained with 2% uranyl acetate solution (10 µL) for 2 min. After excess fluid removal, the samples were visualized using a JEM-1400 TEM (JEOL), operated at 80 kV.

[3] = XTT assay, cytotoxicity of the hybrid molecules towards HEK-293; type: cell-based; conditions: human, HEK-293 cells
Procedure: as §1, §2

[4] = biological target: T2, pre-formed fibrils of Aβ42 (Homo sapiens, UniProt P05067); assay: Congo red birefringence of pre-formed Aβ42 fibrils with the tested molecules; conditions: 5-fold excess of compound
T2 construct: purchased rPeptide (USA)
T2 sequence (P05067 672-713 limits assumed): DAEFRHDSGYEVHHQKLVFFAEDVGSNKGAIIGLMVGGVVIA
Procedure: as §3

## NC(Cc1c[nH]c2ccccc12)C(=O)NC(Cc1c[nH]c2ccccc12)C(=O)O (centres unmarked) [WW]
[1]; 0.2µM
  viability at 24 h, 0.2 µM: 98.8%
[1]; 1 µM
  viability at 24 h, 1 µM: 100%
[1]; 10 µM
  viability at 24 h, 10 µM: 98.4%
[1]; 50 µM
  viability at 24 h, 50 µM: 90.9%
[1]
  viability at 24 h, 250 µM: 88.4%
[1]; SH-SY5Y, 24 h
  viability at 24 h, 250 µM: ~88%
[2]
  pre-formed hIAPP fibrils by TEM, in words: unchanged
[3]; 0.2µM
  viability at 24 h, 0.2 µM: 93.6%
[3]; 1 µM
  viability at 24 h, 1 µM: 98.4%
[3]; 10 µM
  viability at 24 h, 10 µM: 94.3%
[3]; 50 µM
  viability at 24 h, 50 µM: 84.5%
[3]; 250 µM
  viability at 24 h, 250 µM: 83.7%
[3]; HEK-293, 250 µM, 24 h
  viability at 24 h, 250 µM: ~83%
[4]
  Congo red birefringence of pre-formed Aβ42 fibrils, in words: faint birefringence
